Data on two molecules can be found in article PMC6316713, “Design, Synthesis, Experimental and Theoretical Characterization of a New Multitarget 2-Thienyl-N-Acylhydrazone Derivative” (Pharmaceuticals, 2018).

Experiment [1] has as its target T1, PDE4A1A (Homo sapiens, UniProt P27815).
T1 construct: gene PDE4A; isoform PDE4A1A, human recombinant
Briefly: IMAP FP PDE assay, % inhibition at […]. The experiment is classed as biochemical.

Another experiment has as its target T2, PDE4B1 (Homo sapiens, UniProt Q07343).
T2 construct: gene PDE4B; isoform PDE4B1, human recombinant
Briefly: IMAP FP PDE assay, % inhibition at […]. The note with it: read-out: PDE4B1 ^a. The experiment is classed as biochemical.

The target of experiment [2] is T1, PDE4A1A. Briefly: IMAP FP PDE assay (FAM-cAMP), concentration-response. It is filed as biochemical.
In another experiment the target is T3, PDE4D3 (Homo sapiens, UniProt Q08499).
T3 construct: gene PDE4D; isoform PDE4D3, human recombinant
Briefly: IMAP FP PDE assay, % inhibition at […]. It is filed as biochemical.

A further experiment concerns the target T4, adenosine A2A receptor (Homo sapiens, UniProt P29274).
T4 construct: gene ADORA2A; human recombinant, expressed in HEK 293 cells
Briefly: radioligand displacement with [3H]-CGS21680. It is filed as binding. Background: Displacement assays read how much labelled ligand stays bound in the presence of the test substance.

T1 sequence (P27815 265-886 limits assumed): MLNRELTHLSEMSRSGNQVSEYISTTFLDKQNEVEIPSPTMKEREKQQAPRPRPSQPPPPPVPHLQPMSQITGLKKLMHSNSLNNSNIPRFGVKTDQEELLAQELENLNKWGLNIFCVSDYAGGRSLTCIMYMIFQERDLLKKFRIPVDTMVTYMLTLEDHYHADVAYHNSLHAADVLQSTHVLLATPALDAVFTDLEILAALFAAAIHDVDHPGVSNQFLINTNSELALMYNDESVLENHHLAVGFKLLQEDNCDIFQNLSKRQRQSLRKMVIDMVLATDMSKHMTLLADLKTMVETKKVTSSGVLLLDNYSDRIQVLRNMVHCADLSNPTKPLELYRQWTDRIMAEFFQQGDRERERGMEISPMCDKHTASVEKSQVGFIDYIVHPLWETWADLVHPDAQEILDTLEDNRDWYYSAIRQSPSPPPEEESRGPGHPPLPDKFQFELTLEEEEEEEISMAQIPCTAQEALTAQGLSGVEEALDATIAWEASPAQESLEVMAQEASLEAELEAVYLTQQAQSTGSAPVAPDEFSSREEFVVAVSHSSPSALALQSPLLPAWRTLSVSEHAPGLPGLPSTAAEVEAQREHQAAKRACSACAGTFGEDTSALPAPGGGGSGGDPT
T2 sequence (Q07343 whole entry, canonical isoform): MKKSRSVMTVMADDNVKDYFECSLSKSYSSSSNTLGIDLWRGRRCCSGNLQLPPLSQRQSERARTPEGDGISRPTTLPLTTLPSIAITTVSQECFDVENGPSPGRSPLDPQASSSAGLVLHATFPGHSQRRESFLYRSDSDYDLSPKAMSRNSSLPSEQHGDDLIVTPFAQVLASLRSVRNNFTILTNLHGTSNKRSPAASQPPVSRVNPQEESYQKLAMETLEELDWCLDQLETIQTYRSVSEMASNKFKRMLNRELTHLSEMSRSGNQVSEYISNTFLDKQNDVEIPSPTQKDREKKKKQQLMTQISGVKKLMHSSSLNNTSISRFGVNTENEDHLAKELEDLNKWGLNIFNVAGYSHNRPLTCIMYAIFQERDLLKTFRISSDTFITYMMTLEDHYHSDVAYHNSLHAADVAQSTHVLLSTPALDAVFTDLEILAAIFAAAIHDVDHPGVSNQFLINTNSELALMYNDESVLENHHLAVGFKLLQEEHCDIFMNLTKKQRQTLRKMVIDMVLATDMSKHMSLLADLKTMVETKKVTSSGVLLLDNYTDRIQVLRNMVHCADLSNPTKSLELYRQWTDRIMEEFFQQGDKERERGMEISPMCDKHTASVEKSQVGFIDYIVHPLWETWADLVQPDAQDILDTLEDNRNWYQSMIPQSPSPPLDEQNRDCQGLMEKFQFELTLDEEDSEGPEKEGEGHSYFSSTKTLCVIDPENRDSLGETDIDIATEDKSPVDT
T4 sequence (P29274 whole entry): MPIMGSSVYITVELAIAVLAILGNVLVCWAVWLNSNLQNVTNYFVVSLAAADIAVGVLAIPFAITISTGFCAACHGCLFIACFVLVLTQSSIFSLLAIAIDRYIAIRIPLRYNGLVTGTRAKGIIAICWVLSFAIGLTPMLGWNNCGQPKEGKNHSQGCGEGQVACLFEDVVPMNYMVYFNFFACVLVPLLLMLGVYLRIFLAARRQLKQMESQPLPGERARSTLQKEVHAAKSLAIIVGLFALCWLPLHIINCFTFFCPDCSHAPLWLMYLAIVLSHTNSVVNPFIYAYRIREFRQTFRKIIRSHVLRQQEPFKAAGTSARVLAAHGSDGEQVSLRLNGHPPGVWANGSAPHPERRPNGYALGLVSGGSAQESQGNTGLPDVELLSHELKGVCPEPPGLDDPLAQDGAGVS
T3 sequence (Q08499 153-809): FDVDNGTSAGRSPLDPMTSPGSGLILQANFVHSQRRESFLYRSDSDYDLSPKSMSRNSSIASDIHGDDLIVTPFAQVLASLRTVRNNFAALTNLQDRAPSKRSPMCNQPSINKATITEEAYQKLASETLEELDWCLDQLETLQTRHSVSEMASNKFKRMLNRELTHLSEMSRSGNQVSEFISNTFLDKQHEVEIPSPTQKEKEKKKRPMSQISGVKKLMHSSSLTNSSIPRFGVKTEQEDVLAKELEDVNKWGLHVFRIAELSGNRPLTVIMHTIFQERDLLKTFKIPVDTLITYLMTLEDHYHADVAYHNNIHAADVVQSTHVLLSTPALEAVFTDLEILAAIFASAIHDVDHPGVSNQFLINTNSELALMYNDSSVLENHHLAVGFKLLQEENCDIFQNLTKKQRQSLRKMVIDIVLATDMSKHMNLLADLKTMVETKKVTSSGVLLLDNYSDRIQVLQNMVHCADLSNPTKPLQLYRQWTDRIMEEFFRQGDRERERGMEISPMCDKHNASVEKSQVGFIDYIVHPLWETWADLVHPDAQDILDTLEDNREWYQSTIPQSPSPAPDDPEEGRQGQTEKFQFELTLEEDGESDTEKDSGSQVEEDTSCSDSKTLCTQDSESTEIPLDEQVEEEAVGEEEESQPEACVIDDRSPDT

On to `COc1ccc(/C=N/NC(=O)c2cccs2)cc1OC` [compound 3, LASSBio-1834], for which the inhibition at 10 µM came to 53% on PDE4A1A [1] and 48% on PDE4B1.

Broadly, the IC50 is the concentration needed to halve the response being measured. A higher IC50 goes with weaker potency. Broadly, the Ki is a dissociation constant, usually derived from enzyme kinetics or from competition with a known ligand. Molecule `COc1ccc(/C=N/N(C)C(=O)c2cccs2)cc1OC` [compound 4, LASSBio-1835] came in with an IC50 against PDE4A1A [2] of 1080 nM. Moreover, the figures for the inhibition at 10 µM at PDE4D3 and at PDE4B1 were 40% and 44%, respectively. At adenosine A2A receptor, this molecule had a Ki of 1500 nM.
